Test results reported in patent US10149876B2, “Tripterygium wilfordii extracts to overcome chemotherapy resistance” (WESTERN UNIVERSITY OF HEALTH SCIENCES, priority 2012, dated 2018).
“And” between values parts separate entries of the source, which are not always exact repeats. Equal entries are not always repeated. Where two headings read alike, the source gives them in different places.

Legend:
PC3 cells = test: SRB cell viability assay, docetaxel-sensitive PC3 cells; type: cell-based; conditions: Homo sapiens, PC-3; read-out: IC50 of drug when cells treated with drug only
Protocol: The chemotherapeutic drugs that were tested for chemosensitization in combination with LTG-E were docetaxel, daunorubicin, Herceptin®, and lapatinib. […] Table 17 also contains the serially-diluted concentrations of drugs that each cell line was tested against.

K562 cells = test: SRB cell viability assay, daunorubicin-sensitive K562 cells; type: cell-based, human; conditions: 72 h, background = 0.044; for mean A at 565 nm: no LGT-E pre-treatment; for mean A at 516 nm: pre-treated with 25 μg/ml LGT-E
Protocol: Cell culture of the above cell lines was performed as described in Example 2, except that 5,000, rather than 3,000 cells were plated per well for the K562, K562/Dox, BT474, SkBr3 lines.
Table 17 also contains the serially-diluted concentrations of drugs that each cell line was tested against.
Table 36 reports the cell viability data relating to pre-treatment with LTG-E prior to daunorubicin treatment. Table 37 reports control data obtained from cells that were not pre-treated with LGT-E prior to daunorubicin treatment. FIG. 15 summarizes the data of Tables 36 and 37 in a graphical format.

PC3-TxR cells = test: SRB cell viability assay, docetaxel-resistant PC3-TxR cells; conditions: Homo sapiens
Protocol: The CE is expressed as: CE=IC50D/IC50E+D. IC50D is the IC50 of the chemotherapeutic drug against which an test extract (or other compound suspected of having a CE) is evaluated. IC50E+D is the IC50 of the combination of the test extract and chemotherapeutic drug. The CE of a test extract or compound can vary depending on the type of cell and the specific chemotherapeutic or class or combination of therapeutics that are being evaluated.
The variance between those concentrations can be quantitated by calculating the Chemosensitizing Utility Index (CUI) value for a test extract or compound. The CUI is expressed as: CUI=CE×(IC50E/ConE). […] ConE is the concentration of an extract or compound that is required to produce desirable CE.
CE and CUI values were obtained individually for the aqueous, ethanol, and chloroform extracts that are described above. […] In the Examples, the ethanol, is referred to as Lei Gong Teng extract (LGT-E).
PC3-TxR cells were plated into sterile, F-bottom Cellstar® 96 well cell culture plates with lids (Cat #655180, Purchased from Greiner Bio-one, Monroe, N.C.) by placing into each well, 100 μl of medium containing 3000 cells in RPMI 1640 supplemented with 10% fetal bovine serum (Thermo Scientific, Logan, Utah) and a solution of penicillin (100 U/ml) and streptomycin (100 μg/ml) (Life Technologies Grand Island, N.Y.). The cells were at passage 52 at the time of plating. Triplicate wells were assigned to each experimental condition tested, and a 24 hour recovery period for the cells following the seeding of the wells was allowed. During the recovery period, the cells were incubated at 37° C. and 5% CO2.
The LGT-E was prepared by adding an appropriate amount of LGT-E powder to DMSO to form a 500 mg/ml stock solution. The stock solution was alternately vortexed and sonicated until the LGT-E powder went into solution. The stock solution was diluted in RPMI 1640 medium (Mediatech, Manassas, Va., or Life Technologies Grand Island, NY) to reach the desired concentrations of LGT-E (e.g., 12, 25, or 60 μg/ml).
Pretreatment of the cells with LGT-E was carried out by aspirating the media from the wells, followed by adding 50 μl of LGT-E solution containing concentrations of either 12 or 25 μg/ml of LGT-E solution and incubation of the cells for two hours under conditions of 37° C. and 5% CO2.
Media was aspirated from each well, and replaced with a 10% solution of cold trichloroacetic acid (TCA) (Cat #: T6399, purchased from Sigma-Aldrich), and incubated for one hour at 4° C. After the TCA incubation, the TCA solution was aspirated, and the cells were washed five times with tap water. After removing the last wash, the plates were left with lids off at room temperature until the surfaces were dry, which took one to two hours. Then 50 μl of a 0.4% solution of sul-forhodamine B (SRB) sodium salt (Cat #: S9012, purchased from Sigma-Aldrich) was added to each well and the plates were incubated at room temperature for 20 to 30 minutes. Afterwards, the wells were washed five times with a 1% acetic acid solution in 10 mM TRIS base (Cat#: 161-0719, purchased from Bio-Rad Laboratories, Hercules, Calif.). The plates were subsequently left to dry for several hours or overnight. SRB that remained in the dried wells was solubilized by adding 100 μl of SRB solubilization solution (10 mM TRIS base) to each well, and placing the plates either on a gently-moving shaker or letting the plates remain stationary at room temperature until the SRB dissolves, which takes about five to ten minutes. The amount of SRB in each well, which correlated directly to the number of living cells at fixation, was determined spectrophotometrically at an absorbance of 565 nm by a microplate reader.

[1] = Docetaxel 0.001 nM (so in the source)
[2] = Docetaxel 0.1 nM (so in the source)
[3] = Docetaxel 3.33 nM (so in the source)
[4] = Docetaxel 10 nM (so in the source)
[5] = Docetaxel 33.3 nM (so in the source)
[6] = Docetaxel 100 nM (so in the source)

## CC(=O)O[C@@]12CO[C@@H]1C[C@H](O)[C@@]1(C)C(=O)[C@H](O)C3=C(C)[C@@H](OC(=O)[C@H](O)[C@@H](NC(=O)OC(C)(C)C)c4ccccc4)C[C@@](O)([C@@H](OC(=O)c4ccccc4)[C@H]21)C3(C)C [Docetaxel, docetaxel]
PC3 cells
  IC50: 1.8 nM and 0.00145 µg/mL
K562 cells; [1]
  mean A at 565 nm: 2.844
  mean A at 516 nm: 2.860
K562 cells; [2]
  mean A at 565 nm: 2.874
  mean A at 516 nm: 2.851
K562 cells; Docetaxel 0.333 nM (so in the source)
  mean A at 565 nm: 2.274
K562 cells; Docetaxel 1 nM (so in the source)
  mean A at 565 nm: 1.414
K562 cells; [3]
  mean A at 565 nm: 1.269
  mean A at 516 nm: 1.331
K562 cells; [4]
  mean A at 565 nm: 0.732
  mean A at 516 nm: 1.148
K562 cells; [5]
  mean A at 565 nm: 0.300
  mean A at 516 nm: 0.723
K562 cells; [6]
  mean A at 565 nm: 0.436
  mean A at 516 nm: 0.553
PC3-TxR cells; read-out: % viable, PC3-TxR, LGT-E 12 μg/ml pre-treatment, docetaxel 0.001 nM 72 h
  viability at 1 pM: 100%
PC3-TxR cells; read-out: % viable, PC3-TxR, LGT-E 12 μg/ml pre-treatment, docetaxel 0.1 nM 72 h
  viability at 0.0001 µM: 105%
PC3-TxR cells; read-out: % viable, PC3-TxR, LGT-E 12 μg/ml pre-treatment, docetaxel 0.333 nM 72 h
  viability at 0.000333 µM: 103%
PC3-TxR cells; read-out: % viable, PC3-TxR, LGT-E 12 μg/ml pre-treatment, docetaxel 1 nM 72 h
  viability at 0.001 µM: 97.8%
PC3-TxR cells; read-out: % viable, PC3-TxR, LGT-E 12 μg/ml pre-treatment, docetaxel 3.33 nM 72 h
  viability at 0.00333 µM: 62.4%
PC3-TxR cells; read-out: % viable, PC3-TxR, LGT-E 12 μg/ml pre-treatment, docetaxel 10 nM 72 h
  viability at 0.01 µM: 21.2%
PC3-TxR cells; read-out: % viable, PC3-TxR, LGT-E 12 μg/ml pre-treatment, docetaxel 33.3 nM 72 h
  viability at 0.0333 µM: 7%
PC3-TxR cells; read-out: % viable, PC3-TxR, LGT-E 12 μg/ml pre-treatment, docetaxel 100 nM 72 h
  viability at 0.1 µM: 4.1%
PC3-TxR cells; read-out: % viable, PC3-TxR, LGT-E 25 μg/ml pre-treatment, docetaxel 0.001 nM 72 h
  viability at 1 pM: 100%
PC3-TxR cells; read-out: % viable, PC3-TxR, LGT-E 25 μg/ml pre-treatment, docetaxel 0.1 nM 72 h
  viability at 0.0001 µM: 99.9%
PC3-TxR cells; read-out: % viable, PC3-TxR, LGT-E 25 μg/ml pre-treatment, docetaxel 0.333 nM 72 h
  viability at 0.000333 µM: 99.1%
PC3-TxR cells; read-out: % viable, PC3-TxR, LGT-E 25 μg/ml pre-treatment, docetaxel 1 nM 72 h
  viability at 0.001 µM: 82.5%
PC3-TxR cells; read-out: % viable, PC3-TxR, LGT-E 25 μg/ml pre-treatment, docetaxel 3.33 nM 72 h
  viability at 0.00333 µM: 34.6%
PC3-TxR cells; read-out: % viable, PC3-TxR, LGT-E 25 μg/ml pre-treatment, docetaxel 10 nM 72 h
  viability at 0.01 µM: 9.4%
PC3-TxR cells; read-out: % viable, PC3-TxR, LGT-E 25 μg/ml pre-treatment, docetaxel 33.3 nM 72 h
  viability at 0.0333 µM: 4.9%
PC3-TxR cells; read-out: % viable, PC3-TxR, LGT-E 25 μg/ml pre-treatment, docetaxel 100 nM 72 h
  viability at 0.1 µM: 4.7%
PC3-TxR cells; read-out: % viable, PC3-TxR, no LGT-E pre-treatment (Table 2), docetaxel 0.001 nM 72 h
  viability at 1 pM: 100%
PC3-TxR cells; read-out: % viable, PC3-TxR, no LGT-E pre-treatment (Table 2), docetaxel 0.1 nM 72 h
  viability at 0.0001 µM: 98.5%
PC3-TxR cells; read-out: % viable, PC3-TxR, no LGT-E pre-treatment (Table 2), docetaxel 0.333 nM 72 h
  viability at 0.000333 µM: 100%
PC3-TxR cells; read-out: % viable, PC3-TxR, no LGT-E pre-treatment (Table 2), docetaxel 1 nM 72 h
  viability at 0.001 µM: 105%
PC3-TxR cells; read-out: % viable, PC3-TxR, no LGT-E pre-treatment (Table 2), docetaxel 10 nM 72 h
  viability at 0.01 µM: 77%
PC3-TxR cells; read-out: % viable, PC3-TxR, no LGT-E pre-treatment (Table 2), docetaxel 33.3 nM 72 h
  viability at 0.0333 µM: 29.7%
PC3-TxR cells; read-out: % viable, PC3-TxR, no LGT-E pre-treatment (Table 2), docetaxel 100 nM 72 h
  viability at 0.1 µM: 11.3%
PC3-TxR cells; read-out: % viable, PC3-TxR, no LGT-E pre-treatment (Table 4), docetaxel 0.001 nM 72 h
  viability at 1 pM: 100%
PC3-TxR cells; read-out: % viable, PC3-TxR, no LGT-E pre-treatment (Table 4), docetaxel 0.1 nM 72 h
  viability at 0.0001 µM: 98.7%
PC3-TxR cells; read-out: % viable, PC3-TxR, no LGT-E pre-treatment (Table 4), docetaxel 0.333 nM 72 h
  viability at 0.000333 µM: 99.9%
PC3-TxR cells; read-out: % viable, PC3-TxR, no LGT-E pre-treatment (Table 4), docetaxel 1 nM 72 h
  viability at 0.001 µM: 99.2%
PC3-TxR cells; read-out: % viable, PC3-TxR, no LGT-E pre-treatment (Table 4), docetaxel 3.33 nM 72 h
  viability at 0.00333 µM: 98.5%
PC3-TxR cells; read-out: % viable, PC3-TxR, no LGT-E pre-treatment (Table 4), docetaxel 10 nM 72 h
  viability at 0.01 µM: 76.7%
PC3-TxR cells; read-out: % viable, PC3-TxR, no LGT-E pre-treatment (Table 4), docetaxel 33.3 nM 72 h
  viability at 0.0333 µM: 32.9%
PC3-TxR cells; read-out: % viable, PC3-TxR, no LGT-E pre-treatment (Table 4), docetaxel 100 nM 72 h
  viability at 0.1 µM: 13.4%
PC3-TxR cells; read-out: % viable, PC3-TxR, no LGT-E pre-treatment (Table 11, Example 4), docetaxel 0.001 nM 72 h
  viability at 1 pM: 100%
PC3-TxR cells; read-out: % viable, PC3-TxR, no LGT-E pre-treatment (Table 11, Example 4), docetaxel 0.1 nM 72 h
  viability at 0.0001 µM: 98.7%
PC3-TxR cells; read-out: % viable, PC3-TxR, no LGT-E pre-treatment (Table 11, Example 4), docetaxel 0.333 nM 72 h
  viability at 0.000333 µM: 99.9%
PC3-TxR cells; read-out: % viable, PC3-TxR, no LGT-E pre-treatment (Table 11, Example 4), docetaxel 1 nM 72 h
  viability at 0.001 µM: 99.2%
PC3-TxR cells; read-out: % viable, PC3-TxR, no LGT-E pre-treatment (Table 11, Example 4), docetaxel 3.33 nM 72 h
  viability at 0.00333 µM: 98.5%
PC3-TxR cells; read-out: % viable, PC3-TxR, no LGT-E pre-treatment (Table 11, Example 4), docetaxel 10 nM 72 h
  viability at 0.01 µM: 76.7%
PC3-TxR cells; read-out: % viable, PC3-TxR, no LGT-E pre-treatment (Table 11, Example 4), docetaxel 33.3 nM 72 h
  viability at 0.0333 µM: 32.9%
PC3-TxR cells; read-out: % viable, PC3-TxR, no LGT-E pre-treatment (Table 11, Example 4), docetaxel 100 nM 72 h
  viability at 0.1 µM: 13.4%
PC3-TxR cells; read-out: IC50 of drug when cells pre-treated with Chemosensitizing Agent before drug treatment, docetaxel, LGT-E 25 μg/ml pre-treatment
  IC50: 2.19 nM and 0.00177 µg/mL
PC3-TxR cells; read-out: IC50 of drug when cells treated with drug only, docetaxel, line of LGT-E 25 μg/ml
  IC50: 18.3 nM and 0.0148 µg/mL
